IC50 data for 1 molecule are collected here from publication PMC10648598, “Physiologic and Transcriptomic Effects Triggered by Overexpression of Wild Type and Mutant DNA Topoisomerase I in Streptococcus pneumoniae” (International Journal of Molecular Sciences, 2023).

The target in this experiment is T1, TopoI (TopoIWT) (Streptococcus pneumoniae, UniProt Q8DPI9).
T1 construct: gene topA
Put plainly: biochemical.

T1 sequence (Q8DPI9 1-701): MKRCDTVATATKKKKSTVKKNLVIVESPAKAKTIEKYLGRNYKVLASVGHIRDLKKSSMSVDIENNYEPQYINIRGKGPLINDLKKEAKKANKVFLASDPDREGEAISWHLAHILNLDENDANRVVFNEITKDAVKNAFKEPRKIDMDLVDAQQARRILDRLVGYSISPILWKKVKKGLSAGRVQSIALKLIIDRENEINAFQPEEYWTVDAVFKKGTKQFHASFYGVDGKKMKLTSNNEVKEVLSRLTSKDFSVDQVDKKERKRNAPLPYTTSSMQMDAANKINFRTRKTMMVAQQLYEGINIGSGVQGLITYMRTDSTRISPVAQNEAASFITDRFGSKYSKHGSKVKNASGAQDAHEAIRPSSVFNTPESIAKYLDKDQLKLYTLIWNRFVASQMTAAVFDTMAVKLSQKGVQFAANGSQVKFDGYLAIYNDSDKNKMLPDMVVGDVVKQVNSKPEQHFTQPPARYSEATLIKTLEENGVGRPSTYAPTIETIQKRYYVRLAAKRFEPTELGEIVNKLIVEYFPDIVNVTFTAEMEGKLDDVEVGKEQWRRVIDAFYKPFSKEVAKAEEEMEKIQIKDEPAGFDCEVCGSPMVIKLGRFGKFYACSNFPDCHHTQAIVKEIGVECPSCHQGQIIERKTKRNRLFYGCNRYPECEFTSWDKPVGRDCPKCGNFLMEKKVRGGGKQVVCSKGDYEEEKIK

By IC50 is commonly meant the concentration that gives 50% inhibition. High values mean a need for much substance, low ones inhibition by little substance. Molecule `CNCCc1cc2c(c3c1ccc1cc4c(cc13)OCO4)OCO2` [SCN, Seconeolitsine] came in with an IC50 of 6.8 ± 2 µM.
